How the values were obtained:
rats (spatial memory) = assay: Morris water maze; assay type: in vivo
Procedure: Morris water maze: Morris water maze was performed in a circular pool (224 cm in diameter, 46 cm in height) located in a room with distinctive visual cues. Water was filled to a depth of 36 cm and a transparent plastic platform (25×25 cm, 32 cm in height) was located at the center of a fixed quadrant. Rats were trained for two days in the task environment: free-swimming in the pool without the transparent plastic platform. Each training session was 2 min and the rats were picked up from the pool by an experimenter. Then, rats received 4 consecutive daily training trials for the following six days. During each training trial, each rat was placed into the water randomly from one of the quadrants. The rat had to swim until it climbed onto the plastic platform submerged underneath the water. The time duration from being placed into the water to climbing onto the plastic platform was recorded and defined as escape latency. […] Each rat stayed on the platform for 60 s, which also served as the interval of trial. Compound 1 (1 mg/kg) or vehicle was daily injected to each rat 10 min before the first training trial. After the last training trial of each day, each rat was dried by a towel, and an electric heater was placed in its home cage.
Substantial evidence implicates the hippocampus in acquisition and retention of spatial information. See, e.g., Ohon et al. (1979) Behav. Brain Sci. 2: 316–365; and Barnes (1988) Trend Neurosci. 11: 163–169. The effect of Compound 1 on the acquisition of spatial memory in the Morris water maze was tested. Rats received 4 consecutive training trials every day. Compound 1 (1 mg/kg) was daily injected (i.p., 1 mg/kg) 10 min before the first trial of training. […] The escape latencies of 2˜4 trials were 93.8±8.7 s, 79.3±12/3 s and 57.6±12.5 s for a control group, and 50.4±10.2 s, 47.3±6.8 s and 30.3±10.3 for the Compound 1 group (n=10), respectively. The escape latencies of the first trial on the following 3 training days were also markedly shortened in the Compound 1 group. The escape latencies were 91.1±9.8 s, 47.1±3.9 s and 35.3±6.1 s for the control group, and 55.4±12.8 s, 15.3±2.1 s, and 13.4±1.7 s for the Compound 1 group (n=10), respectively. […] The escape latency is shorter in the Compound 1 group throughout the whole experimental period up to 21 days although Compound 1 was only administered […] for 4 days. The mean escape latency on the day-21 is 13.5±1.8 s and 6.0±0.5 s (n=10 each) for the control group and the Compound 1 group, respectively. From results shown above, Compound 1 is a promising drug for improving learning and memory. Compound 1 was mixed with 1.25% carboxymethylcellulose (CMC) and orally delivered to stomach (10 mg/kg) directly 30 min before the first trial for 6 successive days.
Since L-NAME antagonized Compound 1-induced LTP enhancement in hippocampal slices, in vivo experiments were performed to test the effect of L-NAME on the improved learning and memory provoked by Compound 1. In these experiments, rats chronically implanted with cannulae were injected intracerebroventrically with L-NAME (1 mmole/10 mL) or saline 10 min before the first trial of daily training, concomitant with i.p. injection of Compound 1 (1 mg/kg). […] Intracerebroventricular administration of KT 5823 also impaired the Compound 1-induced enhancement.

[1] = system: hippocampal slices taken from young rats; assay: Plasticity induced by low-frequency stimulation (LTD) in hippocampal slices; assay type: cell-based, Wistar rats
Procedure: After decapitation, brains of either adult ([…], for the induction of long-term potentiation) or young (2–3 weeks old, for the induction of long-term depression) Wistar rats were rapidly removed, and the hippocampus was dissected out. Transverse hippocampal slices (450 μm thickness) were immediately placed in an ice-cold cutting buffer containing 124 mM NaCl, 3 mM KCl, 1.0 mM Na2HPO4, 25 mM NaHCO3, 0.5 mM CaCl2, 5.0 mM MgSO4, 10 mM glucose, saturated with 95% O2 and 5% CO2. The slices were then maintained in an interface chamber at room temperature, and perfused at flow rate of 1–2 mL/min with artificial cerebrospinal fluid (ACSF). The composition of ACSF contained 124 mM NaCl, 4.4 mM KCl, 1.0 mM Na2HPO4, 25 mM NaHCO3, 2.0 mM or 2.5 mM CaCl2, 1.0 mM MgSO4, 10 mM glucose, gassed with 95% O2 and 5% CO2. The field Excitatory Postsynaptic Potentials (fEPSP) was evoked by test pulses through a bipolar stimulating electrode placed on the Schaffer collateral/commissural pathway, and recorded from the stratum radiatum of CA1 using a glass micropipette electrode (5–10 MΩ) filled with 2 M NaCl. The test pulse duration was 100 μsec, and test responses were elicited at 0.02 Hz. To record field potentials in the cortico-amygdala pathway, a stimulating electrode was placed in the external capsule, which contained fibers from the auditory cortex to the lateral amygdala. Bicuculine (10 μM) was present in the perfusion solution when the fEPSPs of amygdala were recorded. To increase the effectiveness of fused pyrazolyl compounds that were applied through the perfusion system, the ACSF level in the recording chamber was sufficiently high to cover the hippocampal slices but not to float them. All fused pyrazolyl compounds were perfused in ACSF.
Evoked fEPSPs were recorded and data were analyzed. The initial slope of the fEPSPs was calculated, and the data were expressed as percentages of the average of the base-line slope of the fEPSPs.
Compound 1 on plasticity induced by low-frequency stimulation (LFS): LFS (900 pulses at 1 Hz) was delivered to hippocampal slices taken from young rats ([…]) to induce long-term depression (LTD). Stimulation of hippocampal slices at 1 Hz for 3 min produced no LTD of synaptic transmission. However, this short-duration LFS induced significant LTD in the presence of Compound 1 (83.4±10.9%, n=3). […] A weaker electrical stimulation at 0.02 Hz was delivered in the presence of both nitric oxide donor nitroprusside ([…]) and Compound 1 (1.6 μM). Simultaneous perfusion of the nitric oxide donor nitroprusside (30 μM) and Compound 1 (1.6 μM) induced LTD.

[2] = i.p. 1 mg/kg daily 10 min before first trial, n=10

OCc1ccc(-c2nn(Cc3ccccc3)c3ccccc23)o1 [Compound 1, 1-benzyl-3-(5′-hydroxymethyl-2′-furyl)-indazole]
enhanced learning and memory induced by Compound 1, with L-NAME (rats (spatial memory); L-NAME intracerebroventricular 10 min before first trial, with i.p. Compound 1 (1 mg/kg)): significantly blocked | escape latency, trial 2 of first training day (rats (spatial memory); [2]): 50.4 ± 10.2 s | escape latency, trial 3 of first training day (rats (spatial memory); [2]): 47.3 ± 6.8 s | escape latency, trial 4 of first training day (rats (spatial memory); i.p. 1 mg/kg daily 10 min before first trial, n=10, in s (unit assumed)): 30.3±10.3 | escape latency of the first trial, first of the following 3 training days (rats (spatial memory); i.p. 1 mg/kg, n=10): 55.4 ± 12.8 s | escape latency of the first trial, second of the following 3 training days (rats (spatial memory); i.p. 1 mg/kg, n=10): 15.3 ± 2.1 s | escape latency of the first trial, third of the following 3 training days (rats (spatial memory); i.p. 1 mg/kg, n=10): 13.4 ± 1.7 s | mean escape latency on day-21 (rats (spatial memory); i.p. 1 mg/kg, n=10): 6.0 ± 0.5 s | Compound 1-induced enhancement, with KT 5823 (rats (spatial memory); intracerebroventricular KT 5823): impaired | effect of oral administration on memory (rats (spatial memory); oral 10 mg/kg in 1.25% CMC, 30 min before first trial for 6 successive days): promoted short-term and long-term memory | plasticity with perfusion during LFS ([1]; 1.6 μM perfused for 15 min during LFS (900 pulses at 1 Hz)): reversed the LTD plasticity into LTP | potentiation of fEPSP at 0.02 Hz stimulation, substance alone ([1]; 0.02 Hz stimulation, alone): produced no potentiation | plasticity at 0.02 Hz with nitric oxide donor nitroprusside ([1]; 0.02 Hz stimulation, simultaneous perfusion of nitroprusside (30 μM) and Compound 1 (1.6 μM)): induced LTD | fEPSP (LTD) after short-duration LFS ([1]; 1 Hz for 3 min, in the presence of Compound 1, young rats): 83.4±10.9%
